Source: ChEMBL document CHEMBL5726443, “Bicyclic sulfonamide compounds as sodium channel inhibitors” (2017)

Molecular target: Sodium channel protein type 9 subunit alpha (Homo sapiens, UniProt Q15858)
Assay: Compound effects were measured on a partially inactivated state of the sodium channel. Cells were clamped to a holding potential yielding 20 to 50% inactivation. To elicit sodium current, channels were activated by pulsing to ⿿10 mV for 20 msec. This voltage protocol was repeated at a rate of 0.1 Hz throughout the experiment.

Chain of Sodium channel protein type 9 subunit alpha (Q15858 whole entry): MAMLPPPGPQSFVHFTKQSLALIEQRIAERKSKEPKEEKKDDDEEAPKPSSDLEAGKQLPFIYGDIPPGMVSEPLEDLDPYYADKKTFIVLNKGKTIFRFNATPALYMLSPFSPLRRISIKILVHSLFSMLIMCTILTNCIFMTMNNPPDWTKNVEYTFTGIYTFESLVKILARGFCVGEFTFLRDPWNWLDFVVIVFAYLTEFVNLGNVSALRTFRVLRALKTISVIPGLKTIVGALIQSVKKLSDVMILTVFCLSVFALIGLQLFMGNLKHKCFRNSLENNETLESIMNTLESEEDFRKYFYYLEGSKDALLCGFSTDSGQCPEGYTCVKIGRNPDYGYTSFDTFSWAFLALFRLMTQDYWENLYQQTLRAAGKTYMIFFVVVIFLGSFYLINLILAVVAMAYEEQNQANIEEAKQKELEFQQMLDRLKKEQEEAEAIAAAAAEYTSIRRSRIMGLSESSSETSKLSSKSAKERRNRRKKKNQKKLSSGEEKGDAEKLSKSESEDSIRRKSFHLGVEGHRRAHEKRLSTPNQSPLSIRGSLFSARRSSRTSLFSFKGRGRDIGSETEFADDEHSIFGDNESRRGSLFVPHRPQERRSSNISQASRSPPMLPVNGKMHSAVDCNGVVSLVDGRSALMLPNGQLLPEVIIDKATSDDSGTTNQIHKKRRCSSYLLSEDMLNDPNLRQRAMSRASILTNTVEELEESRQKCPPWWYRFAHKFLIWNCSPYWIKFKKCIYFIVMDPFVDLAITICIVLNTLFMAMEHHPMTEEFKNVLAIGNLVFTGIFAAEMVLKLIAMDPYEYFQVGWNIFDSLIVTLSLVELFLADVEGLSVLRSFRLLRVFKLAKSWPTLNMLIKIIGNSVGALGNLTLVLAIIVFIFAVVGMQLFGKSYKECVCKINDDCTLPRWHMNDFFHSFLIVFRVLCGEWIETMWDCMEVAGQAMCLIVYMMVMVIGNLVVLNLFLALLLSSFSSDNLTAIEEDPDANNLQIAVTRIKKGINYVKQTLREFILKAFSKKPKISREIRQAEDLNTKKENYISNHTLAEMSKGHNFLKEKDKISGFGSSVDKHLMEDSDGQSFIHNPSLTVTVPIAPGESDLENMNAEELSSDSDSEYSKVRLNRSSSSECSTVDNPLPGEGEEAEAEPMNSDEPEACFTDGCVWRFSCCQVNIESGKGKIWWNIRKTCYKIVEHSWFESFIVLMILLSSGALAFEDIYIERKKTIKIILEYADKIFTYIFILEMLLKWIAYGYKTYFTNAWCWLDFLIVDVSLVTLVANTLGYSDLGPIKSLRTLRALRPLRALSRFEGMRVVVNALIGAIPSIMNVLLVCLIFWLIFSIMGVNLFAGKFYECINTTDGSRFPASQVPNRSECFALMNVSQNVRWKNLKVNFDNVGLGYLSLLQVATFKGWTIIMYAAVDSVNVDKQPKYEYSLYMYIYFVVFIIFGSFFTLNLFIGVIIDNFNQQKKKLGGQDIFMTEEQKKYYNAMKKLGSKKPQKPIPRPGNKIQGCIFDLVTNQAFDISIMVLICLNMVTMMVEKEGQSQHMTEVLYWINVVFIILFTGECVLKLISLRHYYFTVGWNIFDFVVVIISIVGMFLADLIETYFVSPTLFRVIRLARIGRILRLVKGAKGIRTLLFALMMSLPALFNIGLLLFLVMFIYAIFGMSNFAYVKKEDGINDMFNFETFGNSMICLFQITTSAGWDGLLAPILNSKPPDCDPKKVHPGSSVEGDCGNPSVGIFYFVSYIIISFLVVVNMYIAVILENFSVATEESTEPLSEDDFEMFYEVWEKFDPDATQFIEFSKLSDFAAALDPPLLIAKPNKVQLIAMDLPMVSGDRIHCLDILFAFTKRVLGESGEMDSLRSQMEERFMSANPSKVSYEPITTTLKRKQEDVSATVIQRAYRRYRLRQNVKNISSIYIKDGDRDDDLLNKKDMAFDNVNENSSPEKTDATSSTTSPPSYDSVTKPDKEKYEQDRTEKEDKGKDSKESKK

IC50 | Structure (SMILES)
18.6 nM | COc1cc(-c2ccc(Cl)c(F)c2)c(C#N)cc1-c1nccc2cc(S(=O)(=O)Nc3nncs3)ccc12
9.2 nM | COc1cc(-c2ccc(F)c(Cl)c2)c(C#N)cc1-c1nccc2cc(S(=O)(=O)Nc3nncs3)ccc12
60.9 nM | COc1cc(-c2cccc(C(F)(F)F)c2)c(C)cc1-c1nccc2cc(S(=O)(=O)Nc3ccon3)ccc12

Structure (SMILES) | IC50
COc1cc(-c2ccc(F)c(C)n2)c(C)cc1-c1ncnc2cc(S(=O)(=O)Nc3ccon3)ccc12 | 445 nM
COc1cc(-c2cccc(Cl)c2)c(F)cc1-c1ncnc2cc(S(=O)(=O)Nc3ncc(F)cn3)ccc12 | 107 nM
